Laboratory results: patent US20240148822A1, “ASSOCIATIONS OF FOSFOMYCIN AND COLISTIN FOR USE AGAINST BIOFILM-ASSOCIATED BACTERIAL INFECTIONS” (priority 2021, published 2024)
≈ marks a conversion by molar mass, not a printed value.

What was measured:
Format in all cases: cell-based
[1] = system: A. baumannii preformed biofilms; assay: Biofilm susceptibility testing (Nunc-TSP lid system), MBEC; details: 24 h exposure
Procedure: (§1) Fosfomycin and colistin Minimum Biofilm Eradication Concentrations (MBECs) were determined as previously described (Macia et al, mentioned above), with MBEC being defined as the lowest concentration of antibiotic that prevented visible bacterial growth in the recovery medium.

[2] = system: P. aeruginosa preformed biofilms; assay: as above; details: 24 h exposure
Procedure: as §1

[3] = system: S. maltophilia preformed biofilms; assay: as above; details: 24 h exposure
Procedure: as §1

[4] = system: K. pneumoniae preformed biofilms; assay: as above; details: 24 h exposure
Procedure: as §1

[5] = system: all tested strains (Gram-negative clinical isolates); assay: Fosfomycin MIC, agar dilution, summary over all tested strains
Procedure: (§2) Antimicrobial susceptibility testing was performed according to Clinical and Laboratory Standard Institute guidelines [CLSI_M07 2018, CLSI_M100 2020]. In particular, colistin MICs were determined by the broth microdilution method, and fosfomycin MICs by the agar dilution method (with the addition of 25 μg/ml of glucose-6-phosphate, as recommended). […] and P. aeruginosa ATCC 27853 were used for quality control purposes.

[6] = system: A. baumannii; assay: Fosfomycin MIC, agar dilution method (CLSI); details: Acinetobacter baumannii
Procedure: as §2

[7] = system: P. aeruginosa; assay: Fosfomycin MIC, agar dilution method (CLSI); details: Pseudomonas aeruginosa
Procedure: as §2

[8] = system: S. maltophilia; assay: Fosfomycin MIC, agar dilution method (CLSI); details: Stenotrophomonas maltophilia
Procedure: as §2

[9] = system: K. pneumoniae; assay: Fosfomycin MIC, agar dilution method (CLSI); details: Klebsiella pneumoniae
Procedure: as §2

[10] = system: all tested strains (preformed biofilms); assay: MBEC, summary over all tested strains; details: colistin
Procedure: as §1

[11] = system: all tested strains (Gram-negative clinical isolates); assay: Colistin MIC, broth microdilution, summary over all tested strains
Procedure: as §2

[12] = system: A. baumannii; assay: Colistin MIC, broth microdilution method (CLSI)
Procedure: as §2

[13] = system: P. aeruginosa; assay: Colistin MIC, broth microdilution method (CLSI)
Procedure: as §2

[14] = system: S. maltophilia; assay: Colistin MIC, broth microdilution method (CLSI)
Procedure: as §2

[15] = system: K. pneumoniae; assay: Colistin MIC, broth microdilution method (CLSI)
Procedure: as §2

[16] = strain FZ139, preformed biofilm
[17] = strain FZ103, preformed biofilm
[18] = strain FZ105, preformed biofilm
[19] = strain FZ106, preformed biofilm
[20] = strain FZ108, preformed biofilm
[21] = strain FZ141, preformed biofilm

Compound: C[C@@H]1O[C@@H]1P(=O)(O)O [Fosfomycin, fosfomycin]
- Fosfomycin MBEC ([1]; strain FZ1, preformed biofilm): >1024 µg/mL
- Fosfomycin MBEC ([1]; strain FZ2, preformed biofilm): >1024 µg/mL
- Fosfomycin MBEC ([1]; strain FZ83, preformed biofilm): >1024 µg/mL
- Fosfomycin MBEC ([2]; strain FZ18, preformed biofilm): >1024 µg/mL
- Fosfomycin MBEC ([2]; strain FZ34, preformed biofilm): >1024 µg/mL
- Fosfomycin MBEC ([2]; strain FZ45, preformed biofilm): >1024 µg/mL
- Fosfomycin MBEC ([2]; strain FZ98, preformed biofilm): >1024 µg/mL
- Fosfomycin MBEC [2, 16]: >1024 µg/mL
- Fosfomycin MBEC ([3]; strain FZ6, preformed biofilm): >1024 µg/mL
- Fosfomycin MBEC ([3]; strain FZ8, preformed biofilm): >1024 µg/mL
- Fosfomycin MBEC ([3]; strain FZ85, preformed biofilm): >1024 µg/mL
- Fosfomycin MBEC ([4]; strain FZ80, preformed biofilm): >1024 µg/mL
- Fosfomycin MBEC [4, 17]: >1024 µg/mL
- Fosfomycin MBEC [4, 18]: >1024 µg/mL
- Fosfomycin MBEC [4, 19]: >1024 µg/mL
- Fosfomycin MBEC [4, 20]: >1024 µg/mL
- Fosfomycin MBEC [4, 21]: 4 µg/mL
- MIC50 [5]: 64 μs/m1
- MIC90 [5]: > 1024 μs/ml
- MIC ([6]; strain FZ1): 512 µg/mL (≈ 3710 µM)
- MIC ([6]; strain FZ2): > 1020 µg/mL
- MIC ([6]; strain FZ83): 64 µg/mL (≈ 464 µM)
- MIC ([7]; strain FZ18): 64 µg/mL (≈ 464 µM)
- MIC ([7]; strain FZ34): > 1020 µg/mL
- MIC ([7]; strain FZ45): > 1020 µg/mL
- MIC ([7]; strain FZ98): 64 µg/mL (≈ 464 µM)
- MIC ([7]; strain FZ139): 8 µg/mL (≈ 57.9 µM)
- MIC ([8]; strain FZ6): 64 µg/mL (≈ 464 µM)
- MIC ([8]; strain FZ8): 128 µg/mL (≈ 927 µM)
- MIC ([8]; strain FZ85): 32 µg/mL (≈ 232 µM)
- MIC ([9]; strain FZ80): 128 µg/mL (≈ 927 µM)
- MIC ([9]; strain FZ103): 32 µg/mL (≈ 232 µM)
- MIC ([9]; strain FZ105): 16 µg/mL (≈ 116 µM)
- MIC ([9]; strain FZ106): 64 µg/mL (≈ 464 µM)
- MIC ([9]; strain FZ108): 128 µg/mL (≈ 927 µM)
- MIC ([9]; strain FZ141): ≤ 0.25 µg/mL

Compound: colistin
- Colistin MBEC ([1]; strain FZ1, preformed biofilm): 64 µg/mL
- Colistin MBEC ([1]; strain FZ2, preformed biofilm): >1024 µg/mL
- Colistin MBEC ([1]; strain FZ83, preformed biofilm): 128 µg/mL
- Colistin MBEC ([2]; strain FZ18, preformed biofilm): >1024 µg/mL
- Colistin MBEC ([2]; strain FZ34, preformed biofilm): >1024 µg/mL
- Colistin MBEC ([2]; strain FZ45, preformed biofilm): >1024 µg/mL
- Colistin MBEC ([2]; strain FZ98, preformed biofilm): >1024 µg/mL
- Colistin MBEC [2, 16]: >1024 µg/mL
- Colistin MBEC ([3]; strain FZ6, preformed biofilm): >1024 µg/mL
- Colistin MBEC ([3]; strain FZ8, preformed biofilm): >1024 µg/mL
- Colistin MBEC ([3]; strain FZ85, preformed biofilm): >1024 µg/mL
- Colistin MBEC ([4]; strain FZ80, preformed biofilm): 64 µg/mL
- Colistin MBEC [4, 17]: 64 µg/mL
- Colistin MBEC [4, 18]: 256 µg/mL
- Colistin MBEC [4, 19]: 256 µg/mL
- Colistin MBEC [4, 20]: >1024 µg/mL
- Colistin MBEC [4, 21]: 8 µg/mL
- MBEC50 [10]: 512 µg/mL
- MIC50 [11]: 4 μs/ml
- MIC90 [11]: 32 μs/ml
- Colistin MIC ([12]; strain FZ1): 0.5 µg/mL
- Colistin MIC ([12]; strain FZ2): 1 µg/mL
- Colistin MIC ([12]; strain FZ83): 8 µg/mL
- Colistin MIC ([13]; strain FZ18): 4 µg/mL
- Colistin MIC ([13]; strain FZ34): 4 µg/mL
- Colistin MIC ([13]; strain FZ45): 4 µg/mL
- Colistin MIC ([13]; strain FZ98): 512 µg/mL
- Colistin MIC ([13]; strain FZ139): 4 µg/mL
- Colistin MIC ([14]; strain FZ6): 4 µg/mL
- Colistin MIC ([14]; strain FZ8): 4 µg/mL
- Colistin MIC ([14]; strain FZ85): 16 µg/mL
- Colistin MIC ([15]; strain FZ80): 0.5 µg/mL
- Colistin MIC ([15]; strain FZ103): 8 µg/mL
- Colistin MIC ([15]; strain FZ105): 128 µg/mL
- Colistin MIC ([15]; strain FZ106): 32 µg/mL
- Colistin MIC ([15]; strain FZ108): 32 µg/mL
- Colistin MIC ([15]; strain FZ141): 2 µg/mL
